# Measured values taken from article PMC5793121 (Toxins, 2018).
# Entries after “also recorded” stand apart in the source; their conditions may differ. Where two headings read alike, the source gives them in different places. No end group written: not given here.
# What was measured:
# [1] = in vivo; settings: male, ICR, mouse, in vivo
# Method: (§1) Az acute toxicity was estimated for its intravenous (iv) and intramuscular (im) administration to male ICR mice in a stepwise procedure.
# (§2) For the iv route of administration, 20 mice were randomly divided in 5 groups of 4 animals each. The animals of each group received a single dose of Az (0.3, 0.4, 0.5, 0.6, or 0.7 mg/kg, respectively) injected into the lateral tail vein at a volume of 1 mL/kg. For the im route of administration, first two experimental groups of 3 animals each were formed. Az at doses of 0.75 and 1.0 mg/kg, respectively, was injected into the quadriceps muscle of the thigh (quadriceps femoris muscle) of two mouse hind limbs at a volume of 0.5 mL/kg to each muscle. Then, five experimental groups of 5 animals each were formed. Az was injected into the quadriceps muscle of the thigh (quadriceps femoris muscle) of the two hind limbs of male ICR mice at doses of 0.8, 0.775, 0.75, 0.725 and 0.7 mg/kg. The injection volume to each limb was 1 mL/kg. Further, neurotoxic manifestations were recorded in animals at 5, 10, 20, 30, 60 and 90 min and 24 h after administration using the functional observation battery, the number of death was counted as well.
# (§3) For the iv and im route of administration, the median lethal dose (LD50) was calculated using a probit analysis. For the im route of administration, the maximum tolerated dose was determined.
# (§4) Rocuronium was administered intramuscularly at doses of 0.13 mg/kg (n = 1), 0.1 mg/kg (n = 4) and 0.08 mg/kg (n = 4) in the triceps of the forelimbs of male ICR mice (8–9 weeks old). Control animals were injected with saline (n = 4). The volume of administration was 0.5 mL/kg in each limb.
# [2] = tested on: male ICR mice; assay: in vivo
# Method: as §1, §2, §3, §4
# [3] = molecular target: T1, rat neuronal heteromeric α4β2 nAChR (Rattus norvegicus, UniProt P09483+P12390); assay type: cell-based
# T1 construct: expressed in transfected cells; host or cells: Xenopus laevis oocytes injected with pcDNA3.1 plasmids, α4:β2 1:1
# T1 sequence (P09483 31-630): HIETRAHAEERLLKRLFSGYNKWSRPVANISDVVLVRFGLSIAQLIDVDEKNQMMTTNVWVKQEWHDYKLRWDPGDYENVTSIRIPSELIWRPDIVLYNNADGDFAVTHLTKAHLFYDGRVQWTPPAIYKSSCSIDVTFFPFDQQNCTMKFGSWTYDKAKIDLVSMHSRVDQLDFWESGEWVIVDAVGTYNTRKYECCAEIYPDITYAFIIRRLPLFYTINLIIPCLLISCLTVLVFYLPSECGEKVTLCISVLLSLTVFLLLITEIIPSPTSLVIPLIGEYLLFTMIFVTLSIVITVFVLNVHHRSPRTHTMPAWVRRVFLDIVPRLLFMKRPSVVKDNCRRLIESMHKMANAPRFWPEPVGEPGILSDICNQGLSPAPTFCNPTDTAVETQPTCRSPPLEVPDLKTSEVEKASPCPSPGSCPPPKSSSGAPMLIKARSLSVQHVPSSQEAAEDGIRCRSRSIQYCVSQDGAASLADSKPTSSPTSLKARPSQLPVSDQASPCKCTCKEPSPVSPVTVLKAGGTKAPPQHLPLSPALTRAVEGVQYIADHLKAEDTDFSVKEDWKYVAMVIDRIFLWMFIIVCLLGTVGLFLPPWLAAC
# T1 sequence (P12390 25-500): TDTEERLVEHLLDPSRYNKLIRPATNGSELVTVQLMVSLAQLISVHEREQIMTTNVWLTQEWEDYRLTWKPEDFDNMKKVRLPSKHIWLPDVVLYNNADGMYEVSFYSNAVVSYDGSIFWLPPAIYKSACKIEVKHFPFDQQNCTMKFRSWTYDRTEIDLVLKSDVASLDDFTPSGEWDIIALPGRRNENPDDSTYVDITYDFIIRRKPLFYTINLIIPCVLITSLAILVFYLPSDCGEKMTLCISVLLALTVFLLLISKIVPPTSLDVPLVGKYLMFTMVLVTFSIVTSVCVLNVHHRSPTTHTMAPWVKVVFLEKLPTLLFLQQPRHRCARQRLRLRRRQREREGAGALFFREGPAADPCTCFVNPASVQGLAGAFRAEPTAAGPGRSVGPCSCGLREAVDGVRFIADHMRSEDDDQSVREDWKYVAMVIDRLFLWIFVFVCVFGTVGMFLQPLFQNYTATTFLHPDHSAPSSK
# Method: Ovary tissue from adult female Xenopus laevis was cut into small pieces and these pieces were digested with collagenase A (4 mg mL^−1, Worthington Biochemical Corp., Lakewood, NJ, USA) in Barth’s solution without calcium (88.0 mM NaCl, 1.1 mM KCl, 2.4 mM NaHCO3, 0.8 mM MgSO4, 15.0 mM HEPES/NaOH, pH 7.6) for 1.5 ± 2 h at 20 °C. The oocytes were stored in Barth’s solution with calcium (88.0 mM NaCl, 1.1 mM KCl, 2.4 mM NaHCO3, 0.3 mM Ca (NO3)2, 0.4 mM CaCl2, 0.8 mM MgSO4, 15.0 mM HEPES/NaOH, pH 7.6) supplemented with 63.0 μg/mL penicillin-G sodium salt, 40.0 μg/mL streptomycin sulfate and 40.0 μg/mL gentamicin. Stage V ± VI oocytes were selected and injected with 3 ng plasmids coding the rat α4 and β2 nAChR subunits (pcDNA3.1 vector) in a molar ratio of 1:1 using an Auto-Nanoliter Injector NanoJect-2 (Drummond Scientific Company, Broomall, PA, USA) in a total injection volume of 23 nL. After injection, oocytes were incubated at 18 °C in Barth’s solution with calcium for 48–120 h. Electrophysiological recordings were made using a Turbo TEC-03X amplifier (npi electronic GmbH, Tamm, Germany) and WinWCP recording software (University of Strathclyde, Glasgow, UK). […] To allow receptor recovery from desensitization, the oocytes were superfused for 5–10 min with buffer (1 mL/min) between ligand applications. Electrophysiological recordings were performed at a holding potential of −60 mV.
# [4] = tested on: male ICR mice; assay type: in vivo, mouse; settings: 7-day im 0.15 and 0.5 mg/kg
# Method: (§5) For carrying out these experiments 90 male ICR mice were used, they were divided equally into three groups (30 animals per group) for each study and in these groups they were subdivided into subgroups of 10 mice each and treated as follows: mice of the first subgroup were injected with normal saline im, the second subgroup animals were treated with Az (0.15 mg/kg im) and the animals of the third subgroup were treated with Az (0.50 mg/kg im). The drugs were injected into the quadriceps muscle of the thigh (musculus quadriceps femoris) daily for seven days (1 mL/kg).
# On the last 7th day of the Az administration, the mice of the second group (30 animals) were immunized intraperitoneally with a 1:1 mixture of 200 μL of bovine serum albumin (BSA, 0.5 mg/mL) with a complete Freund’s adjuvant. 10 days after the 1st immunization, the mice received the second 200 μL ip injection of the antigen (BSA, 0.5 mg/mL) in an incomplete Freund’s adjuvant (1:1 ratio).
# [5] = tested on: male ICR mice; assay type: in vivo, mouse; settings: 7-day im 0.15 and 0.5 mg/kg; remark: listed apart in the source
# Method: as §5
# On the last 7th day of the Az administration, the mice of the first group (30 animals) were immunized with a solution of trinitrobenzenesulfonic acid (TNBS) (200 μL, 10 mM) subcutaneously at the base of a tail. After 6 days the animals were secondarily immunized with TNBS (50 μL, 10 mM) injected in the pad of the left hind paw, the same volume of normal saline was injected into the right hind paw. 24 h after the second immunization, the animals were euthanized (CO2 inhalation) and the weights of their experimental and control paws were determined. The reaction index was calculated using the indicated formula: Ri=Wexp−Wcont/Wexp×100% Ri—reaction index, Wexp—weight of the experimental paw, Wcont—weight of the control paw.
# [6] = tested on: human neuronal heteromeric α3-containing nAChRs (α3β2, α3β4, etc.); assay type: cell-based
# [7] = for AUC(0 → t) / Cmax / T1/2: single, [125I]-Az, blood radioactivity, 5 animals per time point
# Method: The pharmacokinetic study was performed using 163 male ICR mice. Four experimental groups with 40 animals in each were formed. Three intact mice were used as control animals. The animals of the first two experimental groups were intravenously injected with 0.25 and 0.50 mg/kg [^125I]-Az, respectively. The animals of the other two experimental groups were intramuscularly injected with 0.25 and 0.50 mg/kg [^125I]-Az, respectively. To estimate Az elimination rate, animal blood samples were taken from the orbital sinus 5, 15, 30, 60 min and 1, 2, 4 and 24 h after [^125I]-Az administration. The obtained blood samples were weighed. For each indicated time point, [^125I]-Az concentration was calculated as a mean value in blood samples of five animals. The radioactivity (cpm) in the blood samples was counted using a Wallac 1470 WIZARD® Gamma Counter (Perkin Elmer, Waltham, MA, USA). […] Radioactivity data (cpm) were re-calculated to the concentration of [^125I]-Az in the obtained blood samples. The specific pharmacokinetic parameters (AUC (0 → t), Cmax, T1/2) of [^125I]-Az were estimated.
substance,measurement,setting,value
"DNWWPKPPHQGPRPPRPRPKP-NH2 [Az, azemiopsin]",LD50 at 24 h,[1]; im,0.732 ± 0.13 mg/kg
same,MTD at 24 h,[1]; im,0.7 mg/kg
same,LD50 at 24 h,[1]; iv,0.51 mg/kg
same,time of death after administration,[2]; im 0.725 mg/kg,19.7 ± 5.9 min
same,time of death after administration,[2]; im 0.75 mg/kg,28.8 ± 16.0 min
same,time of death after administration,[2]; im 0.775 mg/kg,15.8 ± 4.3 min
same,time of death after administration,[2]; im 0.8 mg/kg,12.2 ± 1.8 min
same,toxicity signs,[2]; im dose of 0.3 mg/kg and lower (grip strength tests),No toxicity signs
same,time of appearance of visible toxic signs after administration,"[2]; im, large doses",5 to 7 min
same,time of complete recovery from the toxic effect after administration,"[2]; im, large doses",24 h
same,LD50,"[2]; intravenous administration, male ICR mice, probit analysis",0.51 ± 0.06 mg/kg
same,influence on ion currents induced by 20 μM nicotine in α4β2 nAChR,[3],no influence
same,effect on heteromeric rat α4β2 nAChR,[3]; concentrations up to 100 μM,no effect
same,immune response to BSA (IgG titers in blood serum),[4],did not demonstrate any significant difference
same,degree of paw edema in delayed-type hypersensitivity to TNBS (cellular immunity),[5],did not cause any significant changes
same,activity against α3-containing nAChRs (nicotine-evoked calcium responses),[6],no Az activity; also recorded: no effect
same,excretion half-life,"[7]; depending on administration way (iv or im), mice",15 to 40 min
same,AUC(0 → t),"[7]; im 0.25 mg/kg, male ICR mice",328 ng·h/mL
same,Cmax,"[7]; im 0.25 mg/kg, male ICR mice",278 ng/mL
same,T1/2,"[7]; im 0.25 mg/kg, male ICR mice",18 min
same,AUC(0 → t),"[7]; im 0.50 mg/kg, male ICR mice",622 ng·h/mL
same,Cmax,"[7]; im 0.50 mg/kg, male ICR mice",257 ng/mL
same,T1/2,"[7]; im 0.50 mg/kg, male ICR mice",40.8 min
same,half-life T1/2,"[7]; intramuscular administration, 0.25 and 0.5 mg/kg, male ICR mice",20 to 40 min
same,AUC(0 → t),"[7]; iv 0.25 mg/kg, male ICR mice",214 ng·h/mL
same,Cmax,"[7]; iv 0.25 mg/kg, male ICR mice",517 ng/mL
same,T1/2,"[7]; iv 0.25 mg/kg, male ICR mice",15.6 min
same,AUC(0 → t),"[7]; iv 0.50 mg/kg, male ICR mice",542 ng·h/mL
same,Cmax,"[7]; iv 0.50 mg/kg, male ICR mice",745 ng/mL
same,T1/2,"[7]; iv 0.50 mg/kg, male ICR mice",17.4 min
